The subject of series [1] is LAM fibroblasts from Arom^hum mice. In words: Click-iT EdU proliferation assay. The following applies: 1 μM antagonist; E2 (10 nM)+R5020 (100 nM). Format: cell-based, mouse.
In series [2] the test system is LAM primary fibroblasts from Arom^hum mice. Put plainly: mRNA levels of P4/PGR-responsive and fibrotic genes in LAM primary fibroblasts. The series is classed as cell-based, mouse.
For series [3] the following is noted: long-term use; cited from earlier work.
In a further series the target is T1, aromatase enzyme (Homo sapiens, UniProt P11511).
T1 sequence (P11511 1-503): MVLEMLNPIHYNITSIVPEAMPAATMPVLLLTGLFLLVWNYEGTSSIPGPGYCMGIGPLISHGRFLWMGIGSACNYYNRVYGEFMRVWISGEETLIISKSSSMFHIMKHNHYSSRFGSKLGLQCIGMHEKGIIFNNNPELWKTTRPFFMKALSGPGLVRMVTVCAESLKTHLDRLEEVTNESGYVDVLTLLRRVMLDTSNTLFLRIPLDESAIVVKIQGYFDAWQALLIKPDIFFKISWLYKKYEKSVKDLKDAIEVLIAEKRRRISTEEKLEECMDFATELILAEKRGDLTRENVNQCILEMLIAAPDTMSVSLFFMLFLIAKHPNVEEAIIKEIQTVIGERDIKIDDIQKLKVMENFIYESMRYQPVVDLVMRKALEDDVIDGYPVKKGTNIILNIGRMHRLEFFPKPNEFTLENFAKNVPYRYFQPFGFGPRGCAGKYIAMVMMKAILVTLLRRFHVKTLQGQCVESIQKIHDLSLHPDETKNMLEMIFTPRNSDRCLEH
Conditions: cited from earlier work.

Series [4] has as its target T2, glucocorticoid receptor (GR) (Homo sapiens, UniProt P04150).
T2 sequence (P04150 1-777): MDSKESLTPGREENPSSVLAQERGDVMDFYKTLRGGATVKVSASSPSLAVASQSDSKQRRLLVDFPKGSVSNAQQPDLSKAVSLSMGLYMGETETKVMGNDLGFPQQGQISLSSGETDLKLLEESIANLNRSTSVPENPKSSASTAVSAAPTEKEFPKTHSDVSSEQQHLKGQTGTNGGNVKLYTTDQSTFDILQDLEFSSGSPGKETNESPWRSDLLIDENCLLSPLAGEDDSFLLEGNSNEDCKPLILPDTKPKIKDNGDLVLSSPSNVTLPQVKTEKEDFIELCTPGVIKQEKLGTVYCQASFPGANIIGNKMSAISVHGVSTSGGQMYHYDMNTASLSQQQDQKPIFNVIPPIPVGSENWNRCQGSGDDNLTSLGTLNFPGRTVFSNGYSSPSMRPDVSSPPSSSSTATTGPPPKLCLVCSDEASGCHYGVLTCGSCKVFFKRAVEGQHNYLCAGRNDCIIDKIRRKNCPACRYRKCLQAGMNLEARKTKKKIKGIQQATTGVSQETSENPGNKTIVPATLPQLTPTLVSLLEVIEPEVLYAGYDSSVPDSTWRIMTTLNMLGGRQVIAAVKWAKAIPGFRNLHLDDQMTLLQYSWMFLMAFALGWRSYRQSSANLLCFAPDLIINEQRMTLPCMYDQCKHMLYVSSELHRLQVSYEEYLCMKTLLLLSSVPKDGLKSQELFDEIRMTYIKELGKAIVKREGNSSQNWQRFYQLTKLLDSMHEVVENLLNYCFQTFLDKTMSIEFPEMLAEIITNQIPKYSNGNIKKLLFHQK
The following applies: cited from earlier work.

Another series has as its target T3, PGR (Homo sapiens, UniProt P06401).
T3 sequence (P06401 1-933): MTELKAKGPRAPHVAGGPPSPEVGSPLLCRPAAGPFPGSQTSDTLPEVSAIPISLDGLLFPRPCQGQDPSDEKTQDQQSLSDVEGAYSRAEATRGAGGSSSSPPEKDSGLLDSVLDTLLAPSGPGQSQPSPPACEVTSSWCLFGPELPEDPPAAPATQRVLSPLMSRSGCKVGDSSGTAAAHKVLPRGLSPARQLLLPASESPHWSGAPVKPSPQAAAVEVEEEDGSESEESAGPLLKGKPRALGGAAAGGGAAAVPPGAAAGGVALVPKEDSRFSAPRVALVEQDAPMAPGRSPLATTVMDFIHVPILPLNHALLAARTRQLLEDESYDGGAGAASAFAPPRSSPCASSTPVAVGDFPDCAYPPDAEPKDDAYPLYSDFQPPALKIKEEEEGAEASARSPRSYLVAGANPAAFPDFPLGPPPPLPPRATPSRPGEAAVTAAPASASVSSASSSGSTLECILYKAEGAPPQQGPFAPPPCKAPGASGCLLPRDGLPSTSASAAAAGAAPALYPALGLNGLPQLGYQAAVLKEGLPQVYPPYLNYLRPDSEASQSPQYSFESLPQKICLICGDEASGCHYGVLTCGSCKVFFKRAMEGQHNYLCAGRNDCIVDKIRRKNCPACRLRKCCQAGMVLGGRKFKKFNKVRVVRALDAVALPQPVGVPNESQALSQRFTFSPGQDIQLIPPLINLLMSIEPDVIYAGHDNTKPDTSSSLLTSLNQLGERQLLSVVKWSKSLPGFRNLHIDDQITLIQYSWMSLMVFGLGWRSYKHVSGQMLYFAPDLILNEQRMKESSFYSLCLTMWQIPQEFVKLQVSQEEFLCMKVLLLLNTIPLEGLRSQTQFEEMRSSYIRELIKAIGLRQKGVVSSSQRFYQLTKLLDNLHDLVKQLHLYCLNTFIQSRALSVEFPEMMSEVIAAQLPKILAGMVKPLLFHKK
The following applies: cited from earlier work.

The values that follow come from patent publication US20250186461A1, “METHODS AND COMPOSITIONS FOR TREATING AND/OR PREVENTING HERNIAS” (Northwestern University, priority 2023, published 2025).

Entries after “also recorded” stand apart in the source; their conditions may differ.

On to `CN(C)c1ccc([C@H]2C[C@]3(C)[C@@H](CC[C@]3(O)CCCO)[C@@H]3CCC4=CC(=O)CCC4=C32)cc1` [ZK299, Onapristone], for which, in series [1], the “inhibition of E2+R5020-stimulated LAM fibroblast proliferation” value is “inhibited; also recorded: blocked”. For the same molecule, the “E2+R5020-induced expression of P4/PGR-responsive (Greb1, Cyp7b1) and fibrotic genes (Adamtsl1, Col1a1, Col14a1)” value in series [2] (1 μM antagonist, pretreated 2 h before E2 (10 nM)+R5020 (100 nM)) is “significantly decreased; also recorded: strongest inhibition”. Further, the “E2+R5020-stimulated expression of Col1a1 and Col12a1, blockade” value in series [2] (pretreatment with 1 μM antagonist) is “blocked”. Also, the liver toxicity entry in series [3] was “significant liver toxicity”. Moreover, the “inhibition of aromatase enzyme activity” value on aromatase enzyme is reported as “weak aromatase inhibitor”. Also, the anti-glucocorticoid activity result in series [4] is listed as “minimal or no antiglucocorticoid properties”. In addition, the “P4/PGR antagonism and PGR selectivity” value at PGR was “highly PGR-selective pure P4 antagonist”.
